Reference: patent US10548899B2, “Quinazolinone and benzotriazinone compounds with cholinergic muscarinin M1 receptor positive allosteric modulator activity” (TAKEDA PHARMACEUTICAL COMPANY LIMITED, priority 2015, dated 2020)
Counter-ions that a name gives are not always drawn.

Biological target: T1, human M1 receptor (hCHRM1) (Homo sapiens, UniProt P11229)
T1 construct: expressed in transfected cells; host or cells: CHO-K1
T1 sequence (P11229 1-460): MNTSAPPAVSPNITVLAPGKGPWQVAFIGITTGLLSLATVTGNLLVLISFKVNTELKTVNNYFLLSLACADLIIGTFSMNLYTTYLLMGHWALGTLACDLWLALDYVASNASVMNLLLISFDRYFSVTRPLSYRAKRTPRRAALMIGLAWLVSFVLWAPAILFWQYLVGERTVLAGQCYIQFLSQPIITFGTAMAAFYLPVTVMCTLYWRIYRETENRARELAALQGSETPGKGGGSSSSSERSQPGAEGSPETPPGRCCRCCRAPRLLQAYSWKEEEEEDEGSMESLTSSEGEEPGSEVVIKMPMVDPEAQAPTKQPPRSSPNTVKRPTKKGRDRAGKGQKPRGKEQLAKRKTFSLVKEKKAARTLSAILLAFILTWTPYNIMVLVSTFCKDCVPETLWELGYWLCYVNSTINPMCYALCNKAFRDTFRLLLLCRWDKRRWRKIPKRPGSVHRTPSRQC
Experiment: Measurement of M1 receptor positive allosteric modulator (M1PAM) activity (calcium fluorescence, Fluo-4, FDSS)
Assay type: cell-based
Settings: for activity (%) at 10 μM: 10 μM test compound, acetylcholine EC20 (final 0.8 nM) present, 100% = acetylcholine 1 μM, 0% = DMSO, CHO-K1 hCHRM1 cells; for EC50: inflection point of concentration-dependent curve, CHO-K1 cells stably expressing hCHRM1, in presence of acetylcholine at EC20 concentration (final 0.8 nM), read-out: IP value
Procedure: Measurement of M1 receptor positive allosteric modulator (M1PAM) activity
The activity of a test compound in the presence of acetylcholine at EC20 concentration (final concentration 0.8 nM), which affords an action corresponding to about 20% of the maximum activity, was measured as PAM activity. The method is as follows. CHO-K1 cells stably expressing a human M1 receptor (hCHRM1) were plated on a 384-well black clear bottom plate (BD Falcon) at 5,000 cells/well, and cultured in an incubator at 37° C., 5% CO2 for 1 day. The medium in the cell plate was removed, and assay buffer A containing a calcium indicator (Recording medium (DOJINDO LABORATORIES), 0.1% BSA (Wako Pure Chemical Industries, Ltd.), 2.5 μg/mL Fluo-4 AM (DOJINDO LABORATORIES), 0.08% Pluronic F127 (DOJINDO LABORATORIES) and 1.25 mM probenecid (DOJINDO LABORATORIES) were added at 30 μL/well. The cells were left standing in the incubator at 37° C., 5% CO2 for 30 min, and further left standing at room temperature for 30 min. A test compound prepared by diluting with assay buffer B (HESS (Invitrogen), 20 mM HEPES (Invitrogen), 0.1% BSA) containing 3.2 nM acetylcholine was added at 10 μL/well, and the fluorescence was measured by FDSS/μcell (Hamamatsu Photonics K.K.) for 1 min every for 1 second. With the definition that the amount of change in the fluorescence on addition of acetylcholine (final concentration 1 μM) is 100% and that on addition of DMSO instead of a test compound is 0%, the activity (%) of the test compound was calculated, and the inflection point in the concentration-dependent curve of the test compound was calculated as IP values.

activity (%) at 10 μM [%]	EC50 [nM]	Structure (SMILES)
92	52	Cc1c(Cc2ccc(-n3cccn3)cc2)cc2c(=O)n([C@H]3CCCC[C@@H]3O)cnc2c1C (relative stereo) [Example 1, 3-(trans-2-hydroxycyclohexyl)-7,8-dimethyl-6-(4-(1H-pyrazol-1-yl)benzyl)quinazolin-4(3H)-one]
96	61	Cc1c(Cc2ccc(-n3cccn3)cc2)cc2c(=O)n([C@H]3CCC[C@@H]3O)cnc2c1C (relative stereo) [Example 2, 3-(trans-2-hydroxycyclopentyl)-7,8-dimethyl-6-(4-(1H-pyrazol-1-yl)benzyl)quinazolin-4(3H)-one]
98	15	Cc1c(Cc2ccc(-n3cccn3)cc2)cc2c(=O)n([C@H]3COCC[C@@H]3O)cnc2c1C (relative stereo) [Example 3, 3-(trans-4-hydroxytetrahydro-2H-pyran-3-yl)-7,8-dimethyl-6-(4-(1H-pyrazol-1-yl)benzyl)quinazolin-4(3H)-one]
101	15	Cc1c(Cc2ccc(-c3cn(C)nn3)cc2)cc2c(=O)n([C@H]3CCC[C@@H]3O)cnc2c1C (relative stereo) [Example 11, 3-(trans-2-hydroxycyclopentyl)-7,8-dimethyl-6-(4-(1-methyl-1H-1,2,3-triazol-4-yl)benzyl)quinazolin-4(3H)-one]
99	39	Cc1cc(-c2ccc(Cc3cc4c(=O)n([C@H]5CCC[C@@H]5O)cnc4c(C)c3C)cn2)ccn1 (relative stereo) [Example 12, 3-(trans-2-hydroxycyclopentyl)-7,8-dimethyl-6-((2′-methyl-2,4′-bipyridin-5-yl)methyl)quinazolin-4(3H)-one]
100	11	Cc1c(Cc2ccc(-c3cn(C)nn3)nc2)cc2c(=O)n([C@H]3CCC[C@@H]3O)cnc2c1C (relative stereo) [Example 14, 3-(trans-2-hydroxycyclopentyl)-7,8-dimethyl-6-((6-(1-methyl-1H-1,2,3-triazol-4-yl)pyridin-3-yl)methyl)quinazolin-4(3H)-one]
100	11	Cc1c(Cc2ccc(-c3cnn(C)c3)nc2)cc2c(=O)n([C@H]3CCC[C@@H]3O)cnc2c1C (relative stereo) [Example 15, 3-(trans-2-hydroxycyclopentyl)-7,8-dimethyl-6-((6-(1-methyl-1H-pyrazol-4-yl)pyridin-3-yl)methyl)quinazolin-4(3H)-one]
90	55	Cc1c(Cc2ccc(-c3cnn(C)c3)cc2)cc2c(=O)n([C@H]3CCC[C@@H]3O)cnc2c1C (relative stereo) [Example 17, 3-(trans-2-hydroxycyclopentyl)-7,8-dimethyl-6-(4-(1-methyl-1H-pyrazol-4-yl)benzyl)quinazolin-4(3H)-one]
97	66	Cc1c(Cc2ccc(Cl)nc2)cc2c(=O)n([C@H]3CCCC[C@@H]3O)cnc2c1C (relative stereo) [Example 19, 6-((6-chloropyridin-3-yl)methyl)-3-(trans-2-hydroxycyclohexyl)-7,8-dimethylquinazolin-4(3H)-one]
97	61	COc1cc(Cc2ccc(-c3cnn(C)c3)cc2)cc2c(=O)n([C@H]3CCC[C@@H]3O)cnc12 (relative stereo) [Example 20, 3-(trans-2-hydroxycyclopentyl)-8-methoxy-6-(4-(1-methyl-1H-pyrazol-4-yl)benzyl)quinazolin-4(3H)-one]
97	51	Cc1cc2ncn([C@H]3CCC[C@@H]3O)c(=O)c2cc1Cc1ccc(-c2cn(C)nn2)cc1 (relative stereo) [Example 21, 3-(trans-2-hydroxycyclopentyl)-7-methyl-6-(4-(1-methyl-1H-1,2,3-triazol-4-yl)benzyl)quinazolin-4(3H)-one]
96	41	Cc1ccc(Cc2cc3c(=O)n([C@H]4CCCC[C@@H]4O)cnc3c(C)c2C)cn1 (relative stereo) [Example 35, 3-(trans-2-hydroxycyclohexyl)-7,8-dimethyl-6-((6-methylpyridin-3-yl)methyl)quinazolin-4(3H)-one]
94	70	Cc1c(Cc2ccc(-c3cn(C)nn3)cc2)cc2c(=O)n([C@H]3CCC[C@@H]3O)nnc2c1C (relative stereo) [Example 40, 3-(trans-2-hydroxycyclopentyl)-7,8-dimethyl-6-(4-(1-methyl-1H-1,2,3-triazol-4-yl)benzyl)-1,2,3-benzotriazin-4(3H)-one]
100	31	Cc1c(Cc2ccc(-n3ccnc3)nc2)cc2c(=O)n([C@H]3COCC[C@@H]3O)nnc2c1C (relative stereo) [Example 42, 3-(trans-4-hydroxytetrahydro-2H-pyran-3-yl)-6-((6-(1H-imidazol-1-yl)pyridin-3-yl)methyl)-7,8-dimethyl-1,2,3-benzotriazin-4(3H)-one]
97	32	Cc1c(Cc2ccc(-c3ccn(C)n3)cc2)cc2c(=O)n([C@H]3COCC[C@@H]3O)nnc2c1C (relative stereo) [Example 46, 3-(trans-4-hydroxytetrahydro-2H-pyran-3-yl)-7,8-dimethyl-6-(4-(1-methyl-1H-pyrazol-3-yl)benzyl)-1,2,3-benzotriazin-4(3H)-one]
95	79	Cc1c(Cc2ccc(-c3cn(C)nn3)cc2)cc2c(=O)n([C@H]3CCC[C@@H]3O)cnc2c1C (single isomer, unassigned) [Example 22, 3-(trans-2-hydroxycyclopentyl)-7,8-dimethyl-6-(4-(1-methyl-1H-1,2,3-triazol-4-yl)benzyl)quinazolin-4(3H)-one]
88	13	Cc1c(Cc2ccc(-c3cn(C)nn3)cc2)cc2c(=O)n([C@@H]3CCC[C@H]3O)cnc2c1C (single isomer, unassigned) [Example 23, 3-(trans-2-hydroxycyclopentyl)-7,8-dimethyl-6-(4-(1-methyl-1H-1,2,3-triazol-4-yl)benzyl)quinazolin-4(3H)-one]
102	6.5	Cc1c(Cc2ccc(-c3cnn(C)c3)nc2)cc2c(=O)n([C@H]3CCC[C@@H]3O)cnc2c1C (single isomer, unassigned) [Example 50, 3-(trans-2-hydroxycyclopentyl)-7,8-dimethyl-6-((6-(1-methyl-1H-pyrazol-4-yl)pyridin-3-yl)methyl)quinazolin-4(3H)-one]
97	79	Cc1c(Cc2ccc(-c3cnn(C)c3)nc2)cc2c(=O)n([C@H]3CCC[C@@H]3O)cnc2c1C (single isomer, unassigned) [Example 51, 3-(trans-2-hydroxycyclopentyl)-7,8-dimethyl-6-((6-(1-methyl-1H-pyrazol-4-yl)pyridin-3-yl)methyl)quinazolin-4(3H)-one]
98	6	Cc1c(Cc2ccc(-n3cccn3)cc2)cc2c(=O)n([C@H]3COCC[C@@H]3O)cnc2c1C (single isomer, unassigned) [Example 52, 3-(trans-4-hydroxytetrahydro-2H-pyran-3-yl)-7,8-dimethyl-6-(4-(1H-pyrazol-1-yl)benzyl)quinazolin-4(3H)-one]
95	62	Cc1c(Cc2ccc(-c3cnn(C)c3)nc2)cc2c(=O)n(CC3CCCO3)cnc2c1Cl (centres unmarked) [Example 25, 8-chloro-7-methyl-6-((6-(1-methyl-1H-pyrazo-4-yl)pyridin-3-yl)methyl)-3-(tetrahydrofuran-2-ylmethyl)quinazolin-4(3H)-one hydrochloride]
100	17	Cc1c(Cc2ccc(-n3cccn3)cc2)cc2c(=O)n([C@H]3COCC[C@@H]3O)cnc2c1F [Example 38, 8-fluoro-3-((3S,4S)-4-hydroxytetrahydro-2H-pyran-3-yl)-7-methyl-6-(4-(1H-pyrazol-1-yl)benzyl)quinazolin-4(3H)-one]
